Measurements from US7410955B2, “Therapeutic use of agonist ligands specific to G2A receptor” (Biosynergen, Inc., priority 2002, dated 2008).

How the values were obtained:
neutrophils = assay: Inhibition of anti-apoptosis of neutrophils by inflammation mediators (AcOr/EtBr staining); type: cell-based, human; details: 15 μM and 30 μM
From the text: (§1) Neutrophils were isolated from healthy adults using discontinuous percoll gradient according to the method of Szucs, S. et al. (J. Immunol. Methods, 167: 245-251, 1994). First, plasmas were separated from heparinized whole blood, and red blood cells were depleted by dextran sedimentation. Thereafter, leukocytes were layered over a percoll gradient with densities of 1.077 and 1.094 (Pharmacia, Sweden). Separated neutrophil layers were recovered from the percoll gradient interface, and then washed with HBSS (Hank's balanced salt solution, Sigma Chemical Co., USA). The remaining pellet was resuspended in RPMI 1640 medium supplemented with 10% FBS (fetal bovine serum) and 2 mM gentamicin. As a result of the examination of the cytospin stained with Wright-Giemsa (Sigma Chemical Co., USA), it was observed that the resuspension solution contained 95% or more neutrophils. Also, as a result of examination using trypan blue dye exclusion method, 98% or more neutrophils were observed.
1×10^5 neutrophil cells isolated in above Example <1-1> were cultured in a 96-well plate to which RPMI1640 medium containing 10% FBS was added. Thereafter, they were treated with 1-stearoyl lysophosphatidylcoline (Sigma Chemical Co., USA) in concentrations of 15 μM and 30 μM, respectively. After 1 hour, they were treated with 1 μg/ml LPS (Sigma Chemical Co.). After 24 hours, the medium was removed from the plats, and the remaining cells were washed twice with PBS (phosphate-buffered saline) buffer at 4° C. The cells adhered to the bottom of the plate were all scraped and put into a 1.5-ml eppendorf tube. Then, they were centrifuged at 2500 rpm for 5 min, and the supernatant was removed. Again, 0.1 ml of PBS buffer at 4° C. was added to the pellet, which was then well mixed using pipetting. To 25 μl of the cell suspension was added 2 μl of AcOr/EtBr dye solution in which 100 μg/ml of acridine orange (AcOr) and 100 μg/ml of ethidium bromide (EtBr) were mixed. Then, the percentage of apoptotic cells/total cells was calculated with observing the neutrophil cells under a fluorescence microscope. […]

neutrophils (human PMNs) = assay: IL-8 release induced by LPS in neutrophils (ELISA); type: cell-based; details: 15 μM and 30 μM, 1 hour before 1 μg/ml LPS, supernatant after 3 hours
From the text: as §1, with “observed. […]” for “observed.”
The neutrophils and monocytes isolated in Examples <2-1> and <2-2> above were cultured in a 96-well plate to which RPMI1640 medium containing 10% FBS was added, at a concentration of 1×10^5 cells/well/0.2 ml, respectively. […] Then, the level of IL-8 was measured using ELISA kit (Biosource, USA).

SMILES: CCCCCCCCCCCCCCCCCC(=O)OCC(O)COP(=O)([O-])OCC[N+](C)(C)C (stereo not drawn) [1-stearoyl LPC, 1-stearoyl (18:0) lysophosphatidylcholine]
- percentage of neutrophil apoptosis (apoptotic cells/total cells) that had been decreased by LPS (neutrophils; 1 hour before 1 μg/ml LPS, read after 24 hours): increased by 1-stearoyl LPC in a concentration-dependent manner
- percentage of neutrophil apoptosis that had been decreased by endogenous inflammation mediators (neutrophils; 100 ng/ml GM-CSF, 100 ng/ml G-CSF or 100 ng/ml IFN-γ instead of LPS): increased by 1-stearoyl LPC in a concentration-dependent manner
- level of IL-8 release that had been increased by LPS in neutrophils (neutrophils (human PMNs)): inhibited by LPC in a concentration-dependent manner
